Experimental data reported in the supplement of paper PMC5908809.

Tests used:
[1] = system: normal NK cells expanded with K562-aAPC; assay: percent inhibition of viability; higher = more inhibition; conditions: 72 h, IL-2 2.5 ng/mL
Experimental: (§1)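 Drug sensitivity and resistance testing on K562-aAPC-expanded normal NK cells: 5 concentrations (10-fold steps over a 10,000-fold range), 72 h at 37 °C, viability by CellTiter-Glo normalised to DMSO and benzethonium chloride controls; DSS from the fitted curve.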

[2] = system: DERL-7 (IL-2 2.5 ng/mL); assay: as above; conditions: 72 h
[3] = system: IMC-1 (IL-2 20 ng/mL); assay: as above; conditions: 72 h
[4] = system: KAI3 (IL-2 2.5 ng/mL); assay: as above; conditions: 72 h
[5] = system: KHYG-1 (IL-2 2.5 ng/mL); assay: as above; conditions: 72 h
[6] = system: NK-92 (IL-2 2.5 ng/mL); assay: as above; conditions: 72 h
[7] = system: NK-YS (IL-2 2.5 ng/mL); assay: as above; conditions: 72 h
[8] = system: NKL (IL-2 2.5 ng/mL); assay: as above; conditions: 72 h
[9] = system: SNK-6 (IL-2 2.5 ng/mL); assay: as above; conditions: 72 h
[10] = system: YT (IL-2 2.5 ng/mL); assay: as above; conditions: 72 h
[11] = system: normal primary NK cells, pool 1 (3 donors) (IL-2 2.5 ng/mL); assay: as above; conditions: 72 h
[12] = system: normal primary NK cells, pool 1 (3 donors), resting (IL-2 0 ng/mL); assay: as above; conditions: 72 h
[13] = system: normal primary NK cells, pool 2 (3 donors) (IL-2 2.5 ng/mL); assay: as above; conditions: 72 h
[14] = system: normal primary NK cells, pool 3 (3 donors) (IL-2 2.5 ng/mL); assay: as above; conditions: 72 h
[15] = system: normal NK cells expanded with K562-aAPC; assay: drug sensitivity score (DSS) (DSS units); higher = more sensitive; extreme values may be limits of the assay; conditions: 72 h; IL-2 2.5 ng/mL
Experimental: as §1

[16] = system: DERL-7 (IL-2 2.5 ng/mL); assay: as above; conditions: 72 h
[17] = system: IMC-1 (IL-2 20 ng/mL); assay: as above; conditions: 72 h
[18] = system: KAI3 (IL-2 2.5 ng/mL); assay: as above; conditions: 72 h
[19] = system: KHYG-1 (IL-2 2.5 ng/mL); assay: as above; conditions: 72 h
[20] = system: NK-92 (IL-2 2.5 ng/mL); assay: as above; conditions: 72 h
[21] = system: NK-YS (IL-2 2.5 ng/mL); assay: as above; conditions: 72 h
[22] = system: NKL (IL-2 2.5 ng/mL); assay: as above; conditions: 72 h
[23] = system: SNK-6 (IL-2 2.5 ng/mL); assay: as above; conditions: 72 h
[24] = system: YT (IL-2 2.5 ng/mL); assay: as above; conditions: 72 h
[25] = system: normal primary NK cells, pool 1 (3 donors) (IL-2 2.5 ng/mL); assay: as above; conditions: 72 h
[26] = system: normal primary NK cells, pool 1 (3 donors), resting (IL-2 0 ng/mL); assay: as above; conditions: 72 h
[27] = system: normal primary NK cells, pool 2 (3 donors) (IL-2 2.5 ng/mL); assay: as above; conditions: 72 h
[28] = system: normal primary NK cells, pool 3 (3 donors) (IL-2 2.5 ng/mL); assay: as above; conditions: 72 h

O=NN(CCCl)C(=O)NCCCl [Carmustine] (max concentration tested 10000 nM)
percent inhibition of viability [%]
Conditions | 1 nM | 10 nM | 100 nM | 1000 nM | 10000 nM
[1] | -3.33 | -8.02 | -3.23 | 5.49 | 10.2
[2] | 5.36 | 1.21 | 3.36 | -4.79 | -4.35
[3] | -8.03 | -3.09 | -2.96 | 3.55 | 8.41
[4] | 12.9 | 6.82 | 6.77 | 13.6 | 17.8
[5] | -12.5 | -8.6 | -6.75 | 0.23 | 1.87
[6] | -3.64 | -0.92 | 5.06 | 12.7 | 8.79
[7] | -3.2 | -2.47 | -1.96 | 2.21 | 7.95
[8] | 4.96 | 5.53 | 6.04 | 16.2 | 15.6
[9] | -5.81 | -6.45 | 1.48 | -7.81 | -8.51
[10] | -9.42 | -5.55 | -4.43 | -1.14 | 11
[11] | 4.94 | 8.26 | 6.5 | 0.38 | 7.88
[12] | 9.22 | 19.6 | 23.1 | 5.64 | 15.2
[13] | -2.54 | 3.84 | 0.64 | 0.07 | 9.39
[14] | -2.97 | 5.49 | 5.6 | 3.01 | 4.59

Conditions | drug sensitivity score
[15] | 0.01
[16] | 0
[17] | 0
[18] | 0
[19] | 0
[20] | 1.02
[21] | 0
[22] | 1.26
[23] | 0
[24] | 0
[25] | 0
[26] | 0
[27] | 0
[28] | 0

O=C(c1ccc(F)c(F)c1Nc1ccc(I)cc1F)N1CC(O)([C@@H]2CCCCN2)C1 [Cobimetinib] (max concentration tested 1000 nM)
percent inhibition of viability [%]
Conditions | 0.1 nM | 1 nM | 10 nM | 100 nM | 1000 nM
[1] | -7.24 | -7.72 | -6.49 | 1.17 | 21.4
[2] | -2.43 | 3.83 | 18.1 | 32.9 | 46.5
[3] | -6.91 | -4.02 | -2.84 | -2.89 | 11.3
[4] | 9.38 | 9.29 | 9.13 | 11.7 | 32.1
[5] | 0.28 | -3.46 | 0.44 | 23.2 | 61.9
[6] | -10.5 | -14.3 | -27.4 | -34.9 | 9.96
[7] | -1.72 | -3.33 | -3.31 | 6.41 | 24.2
[8] | -12.4 | -11.4 | 17.8 | 45 | 73.1
[9] | -10.3 | -0.09 | -17.7 | -8.92 | -10.9
[10] | 0.33 | -2.92 | -2.04 | -0.43 | 15.7
[11] | -3.52 | 2.49 | 17.3 | 18.4 | 24
[12] | 7.7 | 3.18 | 22 | 14 | 16.4
[13] | -3.62 | -9.92 | 3.68 | 12.4 | 19.9
[14] | -9.25 | -10.3 | -2.76 | -1.62 | 12.1

Conditions | drug sensitivity score
[15] | 0.83
[16] | 7.96
[17] | 0
[18] | 3.21
[19] | 6.6
[20] | 0
[21] | 1.78
[22] | 10.4
[23] | 0
[24] | 0.26
[25] | 5.11
[26] | 2.92
[27] | 1.58
[28] | 0.02
